Assay results taken from paper PMC12040169 (PLOS Biology, 2025).

Experiment: in vitro
Settings: human, hela cells, % viability

SMILES	viability at 28.5 h, 10 µM [%]	viability at 28.5 h, 10 µM (bulk resorufin, single well) [%]
C=CCn1c2ccccc2c2nnc(SCC(=O)N3c4ccccc4Sc4ccccc43)nc21 [CBK263237]	106	
O=C(Nc1ccccc1C(=O)O)c1cc(S(=O)(=O)Nc2cccc(F)c2)ccc1Cl [CBK263242]	84.7	
CC(=O)c1ccc(NC(=O)c2cccc(S(=O)(=O)N3CCCCC3)c2)cc1 [CBK263246]	96.4	
O=C(O)c1ccc(Br)c(S(=O)(=O)Nc2ccc(Cl)cc2)c1 [CBK263247]	98	
c1ccc2c(c1)[nH]c1nc(SCCN3CCCCC3)nnc12 [CBK263249]	88.7	
S=C(NCCCN1CCOCC1)Nc1cccc(Cl)c1 [CBK263255]	95	
CN(C)c1ccc([N+](=O)[O-])cc1/C=N/NC(=O)CCc1ccccc1O [CBK263257]	86.1	
Cc1ccccc1C(=O)N/N=C/c1ccc(Sc2nnnn2-c2ccccc2)o1 [CBK263259]	114	
O=C(CSCC(=O)c1ccc(F)cc1)Nc1ccc2ccccc2c1 [CBK263264]	88.1	
O=C(O)CSCc1ccc(C(=O)O)o1 [CBK263267]	107	
CCCC(=O)NC(c1ccc(OC)c(OC)c1)c1c(O)ccc2ccccc12 (stereo not drawn) [CBK263269]	95.2	
O=C(CC1c2ccccc2Oc2ccccc21)Nc1ccc(Cc2ccncc2)cc1 [CBK263271]	91.6	
COc1ccc(/C(N)=N/OC(=O)Cc2ccc(Cl)cc2)cc1OC [CBK263272]	93.2	
Cc1c(Cl)cccc1NC(=O)C(=O)NCCCN1CCOCC1 [CBK263276]	109	
N=C(N/N=C\c1ccncc1)N/N=C\c1ccncc1 [CBK263278C]	94.1	
O=S(=O)(NC(c1c[nH]c2ccccc12)C(Cl)(Cl)Cl)c1ccccc1 (stereo not drawn) [CBK263279]	91.7	
CN1CCN(c2ccc([N+](=O)[O-])cc2/C=N/NC(=O)CCc2ccccc2O)CC1 [CBK263281]	97.7	
c1nnc(SCc2ccc(CSc3nnc[nH]3)cc2)[nH]1 [CBK263282]	93.5	
Cc1nc2ncccn2c1-c1csc(Nc2ccc(C(=O)O)cc2)n1 [CBK263284]	125	
CCOc1ccc(N2C(=O)CC(N3CCN(c4ccccn4)CC3)C2=O)cc1 (stereo not drawn) [CBK263285]	100	
COc1ccccc1OCCOc1cccc(/C=N/n2cnnc2)c1 [CBK263288]	94.7	

SMILES	viability at 28.5 h, 10 µM [%]	viability at 28.5 h, 10 µM (bulk resorufin, single well) [%]
NC(=O)C1CCN(C2CC(=O)NC2=O)CC1 (stereo not drawn) [CBK263290]	90.3	
Cc1nc(C)c(-c2csc(Nc3ccc(S(N)(=O)=O)cc3)n2)s1 [CBK263292B]	95.8	
CCOc1ccc(/N=C2/SC(C(=O)O)CC(=O)N2Cc2ccc3c(c2)OCO3)cc1 (stereo not drawn) [CBK263296]	93.3	
CCNc1ncnc2c1oc1ccccc12 [CBK263298]	89.8	
COc1ccc(C(=O)CSc2nnc(-c3ccccc3)[nH]2)cc1[N+](=O)[O-] [CBK263299]	97.4	
Cc1nc2ccccn2c1-c1csc(Nc2cccc(C(=O)O)c2)n1 [CBK263303B]	92.7	
CCOC(=O)c1ccc(N2C(=O)CC(N3CCN(c4ncccn4)CC3)C2=O)cc1 (stereo not drawn) [CBK263306]	105	
Cc1nc(N)sc1-c1csc(Nc2ncccn2)n1 [CBK263307B]	108	
CCN(CC)CCSc1nc2sc3c(c2c(=O)n1-c1ccc(OC)cc1)CCCC3 [CBK263308]	89.3	
O=C(O)c1ccc2c(c1)C(=O)N(c1ccc(-c3nc(-c4ccccc4)c4ccccc4n3)cc1)C2=O [CBK263311]	101	
O=c1[nH]c(=O)c2nnc(N/N=C\c3ccc(O)cc3)nc2[nH]1 [CBK263312]	94.1	
Cc1ccc(S(=O)(=O)Nc2cc(Sc3nc(C)cc(C)n3)c(O)c3ccccc23)cc1 [CBK263313]	79	
COc1ccc(CNCc2ccc(Cl)cc2)cc1OC [CBK263315]	95.4	
COc1cc(/C=N/Nc2ccc(C(=O)O)cc2)cc(Br)c1O [CBK263318]	95.8	
COc1ccc(C(=O)N2CCN(Cc3cccnc3)CC2)cc1OC [CBK263321]	99.3	
N#C/C(=C\c1ccc(-c2ccc(C(=O)O)cc2)o1)C(=O)NCc1ccco1 [CBK263322]	101	
COc1cc(OC)c(OC)cc1CN1CCN(S(=O)(=O)c2ccc(C)cc2)CC1 [CBK263323]	92.4	
O=C(c1cccnc1)N1CCN(Cc2cccc(Oc3ccccc3)c2)CC1 [CBK263326G]	101	
COc1ccc(Br)cc1CN(CCc1ccc2c(c1)OCO2)Cc1cccnc1 [CBK263327G]	96.8	
Cc1cc(/C=N/NC(=O)c2ccc(CN3CCOCC3)cc2)c(C)n1-c1ccccc1 [CBK263329]	100	
COc1ccc(S(=O)(=O)N2CCN(Cc3cc(OC)c(OC)c(OC)c3)CC2)cc1 [CBK263330]	89.3	

SMILES	viability at 28.5 h, 10 µM [%]	viability at 28.5 h, 10 µM (bulk resorufin, single well) [%]
CCOC(=O)C1CCN(Cn2nc(O)ccc2=O)CC1 [CBK263331]	90.7	
CCN(CC)CCSc1nc(O)c(-c2ccccc2)c(=O)n1-c1ccccc1 [CBK263335C]	111	
O=C(O)c1cc(NC(=O)c2cccc(N3C(=O)c4ccccc4C3=O)c2)cc(C(=O)O)c1 [CBK263338]	96.8	
C=CCSc1nnc(CSc2nc3sc4c(c3c(=O)[nH]2)CCCC4)n1-c1ccccc1 [CBK263341]	94.4	
COc1ccc(/C=C(/NC(=O)c2cccc(Cl)c2)C(=O)Nc2ccccc2)cc1 [CBK263342]	107	
O=C(O)/C(=C\c1ccccc1)NC(=O)c1cccc([N+](=O)[O-])c1 [CBK263348]	96.3	
O=C(CN1CCCCC1)Nc1c(-c2ccccc2)c2cc(Br)ccc2[nH]c1=O [CBK263351]	94.7	
COc1ccc(C2C(C(=O)c3ccccc3)=C(O)C(=O)N2CCN(C)C)cc1OC (stereo not drawn) [CBK263352]	119	
COc1ccc(S(=O)(=O)N2CCN(C(=O)COc3ccc(C)cc3)CC2)cc1 [CBK263354]	90.2	
CC1CN(S(=O)(=O)c2ccc3c(c2)C(=O)c2cc(S(=O)(=O)N4CC(C)OC(C)C4)ccc2-3)CC(C)O1 (stereo not drawn) [CBK263355]	101	
O=[N+]([O-])c1ccc2nc(Sc3nc4ccccc4[nH]3)sc2c1 [CBK263356]	89.8	
O=C(O)CCN1C(=O)c2ccc(Oc3ccc([N+](=O)[O-])cc3)cc2C1=O [CBK263357]	96.2	
COc1cc(/C=C2/C(=O)NC(=O)N(c3ccccc3)C2=O)cc(Cl)c1O [CBK263361]		93.3
CC(C)CCc1c(O)nc(SCCN2CCOCC2)n(-c2ccccc2)c1=O [CBK263363C]	85.5	
C=CCN(c1ccc(C(=O)O)cc1)S(=O)(=O)c1ccc(/C=C/C(=O)O)cc1 [CBK263364]	95.8	
C=C(Br)Cn1c(COc2cccc3ccccc23)nc2ccccc21 [CBK263373]	97.3	
N=C(N)NS(=O)(=O)c1ccc(N/C=C\C(=O)c2ccc3ccccc3c2)cc1 [CBK263374]	98.6	
COc1cc(NS(=O)(=O)c2ccc(N/C=C3/CCc4ccccc4C3=O)cc2)nc(OC)n1 [CBK263376]	82.4	
COc1ccc(CN2CCN(CCCc3ccccc3)CC2)c(OC)c1 [CBK263378]	95.1	
CC(C)CCc1c(O)nc(SCCN(C)C)[nH]c1=O [CBK263382]	95.3	
O=C(C1=C(O)C(=O)N(Cc2cccnc2)C1c1cccc([N+](=O)[O-])c1)c1ccccc1 (stereo not drawn) [CBK263383]	107	

SMILES	viability at 28.5 h, 10 µM [%]	viability at 28.5 h, 10 µM (bulk resorufin, single well) [%]
Cc1n[nH]c(C)c1CCC(=O)N/N=C\c1cccc(Oc2ccccc2)c1 [CBK263384]	98.8	
CN(C)c1ccc(C2C(C(=O)c3ccccc3)=C(O)C(=O)N2CCCC(=O)O)cc1 (stereo not drawn) [CBK263393]	96.4	
Cc1n[nH]c(C)c1CCC(=O)N/N=C\c1ccc(Cl)c(Cl)c1 [CBK263395]	97.4	
Cn1cccc1-c1cc(C(=O)N/N=C/c2cccc(O)c2)[nH]n1 [CBK263397]	89.9	
CCOc1ccc(CN2CCN(C(=O)c3ccc(-c4ccccc4)cc3)CC2)cc1 [CBK263399]	99.9	
O=C(c1cc(S(=O)(=O)N2CCCCC2)c(Cl)cc1N1CCOCC1)N1CCOCC1 [CBK263400]	82.5	
CCOc1cccc(N2C(=O)/C(=C\c3ccc(-c4ccc(C(=O)O)c(Cl)c4)o3)C(=O)NC2=S)c1 [CBK263403]		92.1
CC(C)CNc1cc(Cl)c(S(=O)(=O)NCC(C)C)cc1C(=O)O [CBK263405]	93.5	
Cc1cc(Br)ccc1N1C(=O)NC(=O)/C(=C\c2ccc(-c3ccc(S(N)(=O)=O)cc3)o2)C1=O [CBK263413]		97.4
O=C(CN1CCN(CCN2C(=O)c3cccc4cccc(c34)C2=O)CC1)c1ccc(F)cc1 [CBK263414B]	94.5	
O=C(Nc1ccc(-c2nc3ccccc3o2)c(O)c1)c1ccc(-c2ccc([N+](=O)[O-])cc2)o1 [CBK263416]	108	
COc1ccc(/N=C2\NC(=O)/C(=C\C=C\c3ccccc3)S2)cc1 [CBK263417]	94.2	
O=[N+]([O-])c1cccc(-c2csc(N/N=C\c3cccc(O)c3)n2)c1 [CBK263418]	95.5	
O=C(Nc1ccc2oc(-c3cccnc3)nc2c1)c1cccc(OCc2ccccc2)c1 [CBK263420]	94.4	
NS(=O)(=O)c1ccc(-c2ccc(/C=C3\C(=O)NC(=O)N(c4ccc(Br)cc4)C3=O)o2)cc1 [CBK263423]		93.2
CCc1ccc2oc(-c3ccc(NC(=O)COc4ccc(Cl)cc4Cl)cc3O)nc2c1 [CBK263424]	104	
O=C(Nc1ccccc1)C(N1CCCCC1)N1CCCCC1 [CBK263425]	105	
Cc1cc(C=C2C(=O)NC(=O)NC2=O)c(C)n1C1CCCCC1 [CBK263426]		93.6
O=C(Nc1ccc2nc(SCc3ccc([N+](=O)[O-])cc3)sc2c1)c1ccccc1 [CBK263427]	98.4	
COc1ccc(CC(=O)Nc2ccc(S(N)(=O)=O)cc2)cc1OC [CBK263429]	92	
O=C(NCc1ccccc1)c1ccc(CN2CCC(Cc3ccccc3)CC2)cc1 [CBK263432]	87.5	
